# According to paper PMC3558502, “Acaricide, Fungicide and Drug Interactions in Honey Bees (Apis mellifera)” (PLoS ONE, 2013):
# Entries after “also recorded” stand apart in the source; their conditions may differ. Where a name gives a salt, the structure may show the parent alone. Read-outs that look alike come from different tables or passages of the source.
# Assays:
# [1] = test system: honey bees (Apis mellifera); experiment: Lethal dose bioassay: antimicrobial drugs fed in sucrose syrup, then topical acaricide dose series, 2010; settings: for interactive effect between antimicrobial pre-treatment and acaricide toxicity (in words): 2010 oral pre-treatments, partner named in the value
# Procedure: (§1) Frames of late-stage brood were collected from these colonies and placed in a dark, humid incubator (Darwin Chambers Co., St. Louis, MO, model H024) at 34°C. Newly emerged adults were brushed from frames daily into screened wooden cages (21×14×12 cm) and weighed as a group to estimate the number of bees. Each cohort of 200–800 bees was provisioned with 1∶1 (w/w) granulated sugar dissolved in water and held for 3–4 days in the incubator.
# (§2) Groups of pre-treated bees were allowed to recover for 1 h to minimize mortality due to extended carbon dioxide anaesthetization. Each subgroup of approximately 20 bees, of the 8–13 dose-groups in the bioassay, was then anaesthetized again and treated topically with either an acetone solvent control or one of a range of 7–12 acaricide doses, including doses eliciting 0% and 100% mortality, and at least three doses causing intermediate mortality. After treatment sucrose water was provided to groups of treated bees through a punctured 1.5 ml microcentrifuge tube following dosing, and bees were returned to the 34°C incubator. […] Immobile bees were scored as dead. […] At least three replicate treatment series were performed for each combination of pre-treatment and acaricide. Separately diluted acaricide dose series and bees taken from different colonies were used for each replicate treatment.
# (§3) Lines were fitted to dose-mortality data on a log-probit scale for each pretreatment-acaricide combination using ‘glm’ in the R statistical package. […] Interactive effects between acaricides and the various pre-treatments were determined with pairwise tests comparing the dose-response lines for bees receiving pre-treatments with bees receiving a control pre-treatment using a test analogous to ANCOVA [26]. The full model, which includes the dose of acaricide as a covariate, pre-treatment as a categorical factor and the interaction between acaricide dose and pre-treatment, was compared with two simplified models (Figure 3). A process of model simplification was undertaken in which the explanatory power of model terms was assessed by reference to the likelihood ratio [38]. The first simplified model lacks the interaction term and tests the interaction between pre-treatment and acaricide dose, essentially testing for differences in the slope of the two dose-response lines (also known as a test of the “hypothesis of parallelism” [26]).
# [2] = test system: honey bees (Apis mellifera); experiment: Lethal dose bioassay: topical sublethal pre-treatment (acaricide, fungicide or enzyme inhibitor), then topical acaricide dose series, 2009; settings: for interactive effect between pre-treatment and acaricide toxicity (in words): 2009 topical pre-treatments, partner named in the value; for LD10: from fitted dose-response lines, control pre-treatment, 2009 (Table S1)
# Procedure: Bees were first treated with a sublethal dose of either an acaricide, a fungicide, an antimicrobial drug, or an enzyme inhibitor. Bees were then treated with a range of lethal doses of an acaricide to estimate the dose-response curve. […] We tested 25 of the 6×6 possible acaricide-acaricide combinations, 24 of the 6×5 fungicide-acaricide combinations, 15 of the 6×3 antimicrobial-acaricide combinations and 9 of the 6×3 enzyme inhibitor-acaricide combinations. […] The fungicides propiconazole, fenbuconazole, metconazole and myclobutanil were tested in combination with a single acaricide, tau-fluvalinate.
# as §1
# Each treatment series was conducted using 3–4 day-old adult worker bees divided into 8–13 subgroups of 20 bees each. Bees were narcotized with carbon dioxide and each subgroup was placed in a separate wax-coated paper cup (177 cm^3; Solo S306, Highland Park, IL) covered with cotton cheesecloth and secured with two rubber bands. A maximum sublethal pre-treatment of an acaricide, fungicide, enzyme inhibitor, or solvent control, was then applied to bees in all subgroups. […] Sublethal doses used as pre-treatment for acaricides were determined in preliminary bioassays or previous studies and corresponded to doses less than or near the LD10 values determined in the current experiment. […] All doses were delivered topically in 1 µl of acetone and applied to the thoracic notum using a 50 µl syringe fitted in a repeating dispenser (Hamilton PB-600, Reno, NV). A control pre-treatment consisting of 1 µl of pure acetone was also included.
# as §2, §3
# honey bees = experiment: Estimated daily exposure and margin of safety of acaricide formulations; set-up: species or system Apis mellifera; settings: LD10 divided by estimated daily dose
# Source text: High sublethal doses were deliberately chosen as pre-treatments to make the magnitude of any interactive effect between the pre-treatment and acaricide as large as possible. However, to determine the hazard posed by acaricide interactions in bee hives, the actual exposure bees receive when treated with formulated acaricides must be considered. […] The LD10 can be determined from the fitted dose response lines (Table S1). The daily dose can be estimated by first determining the amount of active ingredient present in each acaricide formulation, correcting this value by the amount of active ingredient available for uptake by the bees (e.g. 10% of the total acaricide content in strip formulations is taken up by bees, [50]) and dividing this quantity by the number of days the acaricide formulation is present in the hive. The estimated daily dose calculated in this way can be validated using published pesticide residue data, [51].
# [3] = test system: honey bees (Apis mellifera); settings: study conducted in 2008 using an identical protocol; cited from earlier work
# [4] = test system: honey bees (Apis mellifera); experiment: Lethal dose bioassay: tau-fluvalinate after PBO or SBI fungicide pre-treatment at 0.1, 1 or 10 nmol per bee, 2010; assay type: in vivo
# Source text: Acetone was also applied as a pre-treatment control.
# Immobile bees were scored as dead.
# Apis mellifera = settings: cited from earlier work
# [5] = tau-fluvalinate topical dose series after acetone control pre-treatment
smiles,measurement,setting,value
Cc1ccc(/N=C/N(C)/C=N/c2ccc(C)cc2C)c(C)c1 [amitraz],interactive effect between antimicrobial pre-treatment and acaricide toxicity (in words),[1],this combination had no effect on acute mortality
same,interactive effect between pre-treatment and acaricide toxicity (in words),[2],toxicity of amitraz was unchanged when bees were pre-treated with tau-fluvalinate; also recorded: oxalic acid pre-treatment reduced the toxicity of amitraz nearly four-fold
same,LD10,[2],0.92 µg/bee
same,margin of safety of acaricide formulations,honey bees,2.0 to 7.8 fold
CC(C)[C@@H](Nc1ccc(C(F)(F)F)cc1Cl)C(=O)OC(C#N)c1cccc(Oc2ccccc2)c1 (stereo partly shown) [tau-fluvalinate],LD50 for tau-fluvalinate,[3],6.75 µg per bee
same,LD50 of the acaricide,"[1]; 2010, topical acaricide, bees fed control 1:1 sucrose syrup",9.2 µg per bee
same,interactive effect between antimicrobial pre-treatment and acaricide toxicity (in words),[1],pretreating bees with oxytetracycline had no significant effect on the LD50 of tau-fluvalinate
same,LD50 of the acaricide,"[2]; 2009, topical, adult workers, pre-treatment: control, 1 µl acetone",19.8 µg per bee
same,increase in toxicity of tau-fluvalinate,"[2]; 2009 experiments, prochloraz pre-treatment",~2000 fold
same,interactive effect between pre-treatment and acaricide toxicity (in words),[2],tau-fluvalinate toxicity was transitively increased when thymol was applied as a pre-treatment; also recorded: chlorothalonil increased the toxicity of both thymol and tau-fluvalinate; also recorded: Pyraclostrobin and boscalid applied together in a blend like Pristine moderately increased the toxicity of tau-fluvalinate
same,increase in toxicity of tau-fluvalinate,[2]; amitraz pre-treatment,5 fold
same,increase in toxicity of tau-fluvalinate,[2]; fenpyroximate pre-treatment,8 fold
same,LD10,[2],3.08 µg/bee
same,interactive effect between SBI fungicide pre-treatment and tau-fluvalinate toxicity (in words),"[4]; 2010, SBI fungicides",an antagonistic interaction was observed at the lowest fungicide doses (0.1 nmol or approximately 0.03 µg per bee)
same,LD50 for tau-fluvalinate,"[4]; 2010, topical, pre-treatment: control (acetone)",9.0 µg per bee
same,interaction between tau-fluvalinate and PBO,[4]; PBO 10 nmol dose level,5.8 fold
same,increase in toxicity of tau-fluvalinate,[4]; pre-treated with any of the 5 fungicides or PBO at the 1 nmol dose,1.4 to 2.3 fold
same,increase in toxicity of tau-fluvalinate,[4]; pre-treated with any of the 5 fungicides or PBO at the 10 nmol dose,12 to 74 fold
same,dose-response line intercept ± SE,[4]; [5],-2.72 ± 0.24
same,dose-response line slope ± SE,[4]; [5],2.85 ± 0.26
Cc1ccc(C(C)C)c(O)c1 [thymol],margin of safety of acaricide formulations,honey bees,2.0 to 7.8 fold
O=C(O)C(=O)O [oxalic acid],LD10,Apis mellifera,176.7c µg/bee
O=C(Nc1ccccc1-c1ccc(Cl)cc1)c1cccnc1Cl [boscalid],interactive effect between pre-treatment and acaricide toxicity (in words),[2],did not interact with any acaricide tested
CC[C@H]1OC(=O)C[C@@H](O)[C@H](C)[C@@H](O[C@@H]2O[C@H](C)[C@@H](O[C@H]3C[C@@](C)(O)[C@@H](O)[C@H](C)O3)[C@H](N(C)C)[C@H]2O)[C@@H](CC=O)C[C@@H](C)C(=O)/C=C/C(C)=C/[C@@H]1CO[C@@H]1O[C@H](C)[C@@H](O)[C@@H](OC)[C@H]1OC [tylosin],interactive effect between antimicrobial pre-treatment and acaricide toxicity (in words),[1],did not interact with any acaricide tested
"CCOC(=O)/C=C\C(=O)OCC [DEM, diethyl maleate]",interactive effect between pre-treatment and acaricide toxicity (in words),[2],did not interact with any acaricide tested
